Assay results as given in article PMC8199291 (Molecules, 2021).
Several values for one entry are separate records, joined by “and”; a condition that tells them apart may be missing. Equal entries are not always repeated. Entries after “also recorded” stand apart in the source; their conditions may differ. Where two headings read alike, the source gives them in different places.

Tests used:
human FAAH (hFAAH) = molecular target: T1, human FAAH (hFAAH) (Homo sapiens, UniProt O00519); test: FAAH enzyme inhibition assay (Cayman inhibitor screening kit, AMC-arachidonoyl amide, fluorescence); type: biochemical; details: for FAAH inhibitory activity (in words): in vitro, up to 100 μM
T1 construct: purchased Cayman Item # 10005196
T1 sequence (O00519 1-579): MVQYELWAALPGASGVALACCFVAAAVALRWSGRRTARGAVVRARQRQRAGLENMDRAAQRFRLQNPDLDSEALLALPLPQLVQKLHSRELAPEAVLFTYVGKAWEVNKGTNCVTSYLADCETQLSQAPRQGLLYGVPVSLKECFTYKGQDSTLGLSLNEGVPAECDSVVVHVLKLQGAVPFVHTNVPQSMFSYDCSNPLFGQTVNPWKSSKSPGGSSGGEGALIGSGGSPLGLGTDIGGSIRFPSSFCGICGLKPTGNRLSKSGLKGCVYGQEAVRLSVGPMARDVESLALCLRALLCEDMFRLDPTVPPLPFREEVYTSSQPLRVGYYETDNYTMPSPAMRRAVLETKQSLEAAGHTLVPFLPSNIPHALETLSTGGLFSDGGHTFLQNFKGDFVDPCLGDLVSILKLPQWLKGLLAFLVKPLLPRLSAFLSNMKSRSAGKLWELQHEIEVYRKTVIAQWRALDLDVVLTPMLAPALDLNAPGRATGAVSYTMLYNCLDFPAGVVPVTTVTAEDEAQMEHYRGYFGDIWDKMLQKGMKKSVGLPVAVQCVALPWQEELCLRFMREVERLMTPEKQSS
Description: The manufacturer’s protocol was followed to perform the assay. […] AMC-Arachidonoyl amide, at a concentration of 400 μM, was then used as the FAAH substrate. The samples were mixed for 30 s and incubated at 37 °C for 30 min.

human MAGL (hMAGL) = molecular target: T2, human MAGL (hMAGL) (Homo sapiens, UniProt Q99685); test: MAGL enzyme inhibition assay (4-nitrophenylacetate hydrolysis, absorbance 405 nm); type: biochemical; details: for decrease of MAGL inhibitory activity: relative to the parent compound as worded in the text (disulfiram for 2c, 2d; para substitution of 2h for 2k); for MAGL inhibitory activity (in words): in vitro; as to IC50 (µM) ± SE (hMAGL): 250 µM 4-nitrophenylacetate
T2 construct: purchased Reaction Biology Corp
T2 sequence (Q99685 1-303): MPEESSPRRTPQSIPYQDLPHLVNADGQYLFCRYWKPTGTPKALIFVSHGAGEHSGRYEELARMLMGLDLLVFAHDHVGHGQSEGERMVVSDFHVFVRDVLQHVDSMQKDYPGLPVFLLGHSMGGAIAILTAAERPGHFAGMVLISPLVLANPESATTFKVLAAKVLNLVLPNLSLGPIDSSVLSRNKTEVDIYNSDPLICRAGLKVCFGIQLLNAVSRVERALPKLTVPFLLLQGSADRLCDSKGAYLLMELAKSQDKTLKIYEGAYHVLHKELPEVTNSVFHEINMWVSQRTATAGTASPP
Description: All of the tested compounds were prepared as 10 mM stock solutions in DMSO. […] The plate was mixed for 30 s and incubated at room temperature for 30 min.

[1] = read-out: IC50 (µM) ± SE (hFAAH)
[2] = read-out: IC50 (µM) ± SE (hMAGL)
[3] = 10-dose IC50 mode, 3-fold serial dilution, top 100 μM (JZL195 5 μM), 400 μM AMC-arachidonoyl amide, 37 °C 30 min, average of at least two experiments ± SE

Row | Structure (SMILES) | IC50 (human FAAH (hFAAH); [1]) | IC50 (human MAGL (hMAGL); [2]) [µM] | IC50 (human FAAH (hFAAH); [3]) [µM] | FAAH inhibitory activity (in words) (human FAAH (hFAAH)) | further results
1 | CCN(CC)C(=S)SSC(=S)N(CC)CC [2a, Disulfiram, reference compound] | 36 µM and 36.2 µM | 0.95 ± 0.26 | – | – | –
2 | CC(C)N(C(=S)SSC(=S)N(C(C)C)C(C)C)C(C)C [2b] | – | 1.89 ± 0.37 | > 100 | – | –
3 | CCCCN(CCCC)C(=S)SSC(=S)N(CCCC)CCCC [2c] | – | 7.14 ± 0.21 | > 100 | no inhibition | decrease of MAGL inhibitory activity (human MAGL (hMAGL)): up to 15 fold
4 | CC(C)CN(CC(C)C)C(=S)SSC(=S)N(CC(C)C)CC(C)C [2d] | – | 13.4 ± 4.79 | > 100 | no inhibition | hydrolytic activity of MAGL inhibited by the compound upon addition of dithiothreitol (reversibility of inhibition) (human MAGL (hMAGL); absence vs presence of dithiothreitol 10 mM): restored; decrease of MAGL inhibitory activity (human MAGL (hMAGL)): up to 15 fold
5 | CCN(CCO)C(=S)SSC(=S)N(CC)CCO [2e] | 25.4 ± 3.26 µM | 0.72 ± 0.2 | – | – | –
6 | CCN(Cc1ccc(F)cc1)C(=S)SSC(=S)N(CC)Cc1ccc(F)cc1 [2i] | – | 3.58 ± 1.54 | > 100 | devoid of anti-FAAH activity; also recorded: did not show any inhibitory activity | MAGL inhibitory activity (in words) (human MAGL (hMAGL)): low micromolar range
7 | S=C(SSC(=S)N(Cc1ccccc1)Cc1ccccc1)N(Cc1ccccc1)Cc1ccccc1 [2m] | – | – | > 100 | complete loss of FAAH inhibitory activity | IC50 (human MAGL (hMAGL)): 3.58 ± 0.95 µM
8 | O=C(Oc1ccc([N+](=O)[O-])cc1)N1CCN(Cc2cccc(Oc3ccccc3)c2)CC1 [JZL-195, reference compound] | – | – | 0.04 ± 0.02 | – | –

Further lines, with some results ahead:

Row | IC50 (human FAAH (hFAAH); [1]) | IC50 (human MAGL (hMAGL); [2]) [µM] | IC50 (human FAAH (hFAAH); [3]) [µM] | FAAH inhibitory activity (in words) (human FAAH (hFAAH)) | Structure (SMILES) | further results
9 | 12.8 ± 1.57 µM | 0.87 ± 0.21 | – | – | CCN(CCC(=O)O)C(=S)SSC(=S)N(CC)CCC(=O)O [2f] | –
10 | 10 ± 0.68 µM | 3.53 ± 1.32 | – | – | CCOC(=O)CCN(CC)C(=S)SSC(=S)N(CC)CCC(=O)OCC [2g, Bis(N-ethoxycarbonylethylethylthiocarbamoyl)disulphide] | MAGL inhibitory activity (in words) (human MAGL (hMAGL)): low micromolar range
11 | – | 5.53 ± 2.62 | > 100 | devoid of anti-FAAH activity | CCN(Cc1ccccc1)C(=S)SSC(=S)N(CC)Cc1ccccc1 [2h] | –
12 | 38.3 ± 7.96 µM | 3.71 ± 1.28 | – | – | CCN(Cc1ccc(O)cc1)C(=S)SSC(=S)N(CC)Cc1ccc(O)cc1 [2j] | –
13 | – | 22.6 ± 16.8 | > 100 | devoid of anti-FAAH activity | CCN(Cc1ccc(C(=O)O)cc1)C(=S)SSC(=S)N(CC)Cc1ccc(C(=O)O)cc1 [2k] | –
14 | – | 5.03 ± 2.35 | > 100 | devoid of anti-FAAH activity | CCOC(=O)c1ccc(CN(CC)C(=S)SSC(=S)N(CC)Cc2ccc(C(=O)OCC)cc2)cc1 [2l, Bis(N-4-ethoxycarbonylbenzylethylthiocarbamoyl)disulphide] | –
